Reference: patent US12103904B2, “Benzoylglycine derivatives and methods of making and using same” (Duke University, priority 2016, dated 2024)
Values after ≈ are worked out from the molar mass of the structure shown. Each block holds one compound with its values, some of them ahead of it.

Assays:
N. gonorrhoeae F89 [1] = conditions: literature value (Unemo et al. 2011); cited from earlier work
N. gonorrhoeae HO41 [2] = conditions: literature value (Ohnishi et al. 2011); cited from earlier work
N. gonorrhoeae 35/02 = test: Minimum Inhibitory Concentration (MIC) on GCB plates; format: cell-based, Neisseria gonorrhoeae; conditions: cephalosporin-intermediate resistant strain 35/02
Method: (§1) Non-piliated variants of the indicated strains of Neisseria gonorrhoeae were grown overnight on GCB plates, resuspended in GCB broth with Kellogg's supplements I and II (Kellogg et al. (1963) Neisseria gonorrhoeae. I. Virulence genetically linked to colonial variation. J Bacteriol 85, 1274-1279), 10 mM MgCl2, and 20 mM sodium bicarbonate at a final OD600 of 0.018 (˜1×10^7 cfu/ml). Aliquots (5 μl) of each strain was spotted onto GCB plates containing the compounds at 2-fold dilution intervals. The MIC was defined as the lowest concentration of antibiotic on which fewer than 5 colonies appeared after 24 hrs of incubation.
(§2) FA19 is an antibiotic-susceptible strain (Maness, M. J., and Sparling, P. F. (1973) Multiple antibiotic resistance due to a single mutation in Neisseria gonorrhoeae. J Infect Dis 128, 321-330). 35/02 is a cephalosporin-intermediate resistant strain of N. gonorrhoeae isolated in Sweden in 2002 (Lindberg et al. (2007) Neisseria gonorrhoeae isolates with reduced susceptibility to cefixime and ceftriaxone: association with genetic polymorphisms in penA, mtrR, porB1b, and ponA. Antimicrob Agents Chemother 51, 2117-2122). This strain contains a mosaic penA gene (encoding variants of Penicillin-Binding Protein 2) associated with cephalosporin resistance, but the strain is not fully resistant. […] Lastly, F89 has an MIC of ceftriaxone=2 μg/ml (Unemo et al. (2011) High-level cefixime- and ceftriaxone-resistant N. gonorrhoeae in France: novel penA mosaic allele in a successful international clone causes treatment failure. Antimicrob Agents Chemother 56, 1273-1280).
(§3) “MIC50” refers to an amount, concentration or dosage of a particular test compound that achieves a 50% inhibition of a growth of a target organism. […] Representative results are also illustrated in Table 1.

N. gonorrhoeae F89 [3] = test: as above; format: cell-based, Neisseria gonorrhoeae; conditions: ceftriaxone-resistant strain F89
Method: as §1, §2, §3

N. gonorrhoeae FA19 = test: as above; format: cell-based, Neisseria gonorrhoeae; conditions: antibiotic-susceptible strain FA19
Method: as §1, §2, §3

N. gonorrhoeae HO41 [4] = test: as above; format: cell-based, Neisseria gonorrhoeae; conditions: ceftriaxone-resistant strain HO41
Method: as §1, §2, §3

[5] = tested on: multidrug-resistant H041 N. gonorrhoeae; test: murine gonococcal infection model (in vivo clearance); set-up: species or system mice
Description: FIG. 2 illustrates in vivo efficacy of Example 3 in the murine gonococcal infection model. (A) efficacy of Example 3 administered intraperitoneally. […] (B) efficacy of Example 3 administrated orally. Mice were infected with multidrug-resistant H041 N. gonorrhoeae via an established protocol.
Female Mouse Model of Infection: Female BALB/c mice (Charles River Laboratories, NCI Frederick strain of inbred BALB/cAnNCr mice, strain code 555) were allowed to acclimate to the USU animal facility in autoclaved cages and bedding and with autoclaved water and chow for 10 days. After the acclimation period and […] to bacterial inoculation (day −4), vaginal smears were stained with a modified Wright's stain (Hem3, Fisher HealthCare Protocol) and examined to identify mice in anestrus or in the diestrus stage of the estrous cycle. […] On day −2, mice were inoculated vaginally with 20 μl of strain H041 rpsL suspended in PBS; suspensions were passed through a […] filter to remove aggregates and adjusted to the absorbance A600 reading at 600 nm (A600) that was predicted to be 5×10^5 CFU/ml, which is the concentration needed to inoculate mice with the number of viable gonococci needed to infect 80% of mice (infectious dose 80; ID80). […]
Vaginal swabs were quantitatively cultured for Gc on days −1 and 0 following vaginal inoculation to confirm infection prior to treatment. […]

B. cepacia = test: MIC against clinical strains; format: cell-based; conditions: Burkholderia cepacia; B. cepacia clinical strains (n = 5)
Method: (§4) The antibiotic activities of the compounds useful in the methods of the disclosure are evaluated by measurements of minimum inhibitory concentrations (MICs) using E. coli, P. aeruginosa, K. pneumoniae and B. cepacia.

E. coli = test: MIC against clinical strains; format: cell-based; conditions: Escherichia coli; E. coli clinical strains (n = 10)
Method: as §4

K. pneumoniae = test: MIC against clinical strains; format: cell-based; conditions: Klebsiella pneumoniae; K. pneumoniae clinical strains (n = 10)
Method: as §4

P. aeruginosa = test: MIC against clinical strains; format: cell-based; conditions: Pseudomonas aeruginosa; P. aeruginosa clinical strains (n = 10)
Method: as §4

E. coli strain O18:H7:K1 = test: murine E. coli intraperitoneal sepsis model; format: in vivo; conditions: mice infected with E. coli O18:H7:K1, single dose
Description: FIG. 3 illustrates in vivo efficacy of Example 4 in the murine E. coli sepsis model. (A) dose response curves of Example 4 in a murine intraperitoneal sepsis model. Mice were infected with the E. coli strain O18:H7:K1.

Structure (SMILES): CO/N=C(\C(=O)N[C@@H]1C(=O)N2C(C(=O)O)=C(CSc3nc(=O)c(=O)[nH]n3C)CS[C@H]12)c1csc(N)n1 [ceftriaxone]
MIC of ceftriaxone, strain F89 (N. gonorrhoeae F89 [1]): 2 µg/mL | MIC of ceftriaxone, strain H041 (N. gonorrhoeae HO41 [2]): 2 to 4 µg/mL

MIC N. gonorrhoeae 35/02 (N. gonorrhoeae 35/02): 0.03 | MIC N. gonorrhoeae F89 (N. gonorrhoeae F89 [3]): 0.03 | MIC N. gonorrhoeae FA19 (N. gonorrhoeae FA19): 0.02 | MIC N. gonorrhoeae HO41 (N. gonorrhoeae HO41 [4]): 0.03
Structure (SMILES): C[C@@](O)(C(F)F)[C@H](NCCCc1ccc(-c2ccccc2)cc1)C(=O)NO

Structure (SMILES): CC(C)(C)C(=O)ONC(=O)[C@@H](NC(=O)c1ccc(-c2ccccc2)cc1)[C@](C)(O)C(F)F [Example 3, N-((2S,3S)-4,4-difluoro-3-hydroxy-3-methyl-1-oxo-1-((pivaloyloxy)amino)butan-2-yl)-[1,1′-biphenyl]-4-carboxamide]
in vivo efficacy, administered orally ([5]; female BALB/c mice, vaginal infection with H041 rpsL, oral, four consecutive days): exhibited in vivo efficacy | in vivo efficacy, administered intraperitoneally ([5]; mice infected with H041 N. gonorrhoeae, intraperitoneal, once daily vs twice daily at half of the dose): once daily treatment (circles) is more effective than the twice daily treatment at half of the dose

Structure (SMILES): C[C@@](O)(C(F)F)[C@H](NC(=O)c1ccc(C#CC#CC2CC2)cc1)C(=O)NO [Example 4, 4-(cyclopropylbuta-1,3-diyn-1-yl)-N-((2S,3S)-4,4-difluoro-3-hydroxy-1-(hydroxyamino)-3-methyl-1-oxobutan-2-yl)benzamide]
MIC N. gonorrhoeae 35/02 (N. gonorrhoeae 35/02): 0.063 | MIC N. gonorrhoeae F89 (N. gonorrhoeae F89 [3]): 0.008 | MIC N. gonorrhoeae FA19 (N. gonorrhoeae FA19): 0.016 | MIC N. gonorrhoeae HO41 (N. gonorrhoeae HO41 [4]): 0.026 | MIC50 (B. cepacia): 0.03 µg/mL (≈ 0.0797 µM) | MIC90 (B. cepacia): 0.13 µg/mL (≈ 0.345 µM) | MIC50 (E. coli): 0.02 µg/mL (≈ 0.0531 µM) | MIC90 (E. coli): 0.02 µg/mL (≈ 0.0531 µM) | MIC50 (K. pneumoniae): 0.06 µg/mL (≈ 0.159 µM) | MIC90 (K. pneumoniae): 0.25 µg/mL (≈ 0.664 µM) | MIC50 (P. aeruginosa): 0.16 µg/mL (≈ 0.425 µM) | MIC90 (P. aeruginosa): 0.32 µg/mL (≈ 0.85 µM) | clearance of E. coli infection (E. coli strain O18:H7:K1): cleared E. coli infections in the majority of mice

MIC N. gonorrhoeae 35/02 (N. gonorrhoeae 35/02): 0.02 | MIC N. gonorrhoeae F89 (N. gonorrhoeae F89 [3]): 0.007 | MIC N. gonorrhoeae FA19 (N. gonorrhoeae FA19): 0.002 | MIC N. gonorrhoeae HO41 (N. gonorrhoeae HO41 [4]): 0.004
Structure (SMILES): C[C@@](O)(C(F)F)[C@H](NC(=O)c1ccc(-c2ccccc2)cc1)C(=O)NO [Example 2, N-((2S,3S)-4,4-difluoro-3-hydroxy-1-(hydroxyamino)-3-methyl-1-oxobutan-2-yl)-[1,1′-biphenyl]-4-carboxamide]
